The source of these data is patent publication US11752116B2, “Method of viral inhibition” (priority 2013, dated 2023).

Molecules are shown by their SMILES. Some results are limits rather than exact numbers.

One series relates to DENV-1. Put plainly: Plaque assay in Huh-7 cells, DENV-1. The following applies: Dengue virus, DENV1, Huh-7, 48 h, read-out: EC50, infectious virus titre DENV 1. The series is classed as cell-based. How it is done:
(§1) To ensure the antiviral activity of 4-HPR is not cell-line specific Huh-7 cells were also infected with DENV-1, 2, 3 or 4 (MOI of 0.3) in the presence of increasing concentrations of 4-HPR, with infectious virus titres determined by plaque assay at 48 h p.i.

The test system of series [1] is DENV-4. The series can be described thus: Cell-based flavivirus immunodetection assay in BHK-21 cells, DENV-4. The settings on record: Dengue virus, DENV4, BHK-21, 48 h, read-out: EC50, DENV-4 replication. How it is done: (§2) To investigate this, BHK-21 cells were infected with DENV serotypes 1, 2, 3 or 4 (MOI of 0.3) for 1 h in the presence of 4-HPR or 4-MPR (concentrations as indicated in FIG. 6A). Virus inoculum was removed and fresh media containing the indicated compounds was added. Virus infection rates were determined 48 h p.i. using a cell-based flavivirus immunodetection assay. Briefly, cells were fixed and stained for DENV structural protein, E, followed by addition of Alexa Fluor 488 anti-mouse IgG. Viral antigen quantification was performed using Imagexpress. Data shown are representative of a single experiment

In series [2] the test system is DENV-2. The series can be described thus: Delayed addition in DENV-2 infected Huh-7 cells, viral titre by plaque assay. The series is classed as cell-based. The settings on record: 7.5 μM added 12 h p.i., at 60 h p.i. As to the method:
(§3) To gain further insight into the mode of action of 4-HPR, the human liver carcinoma cell line, Huh-7 cells were infected with DENV-2 (MOI of 1), followed by delayed addition of drug diluent DMSO (DENV only), 7.5 μM 4-HPR, 7.5 μM 4-MPR or 10 μM NITD008 (a previously described adenosine nucleoside inhibitor), 12 h post infection. Cells were lysed at the indicated times, RNA was extracted by Trizol and analysed by qPCR with fold change in expression of NS1 calculated relative to the untreated control (FIG. 5B). Concurrently, culture medium was collected and viral titres determined by plaque assay (FIG. 5C).

The conditions of series [3]: up to 4,000 mg/m^2/day, daily for 28 days, including in children; cited from earlier work.
The test system of series [4] is DENV-2. The series can be described thus: DENV-2 infectivity assay in Vero cells, viral RNA copies in culture medium by RT-PCR. The series is classed as cell-based. The following applies: MOI of 1. As to the method: To test the specificity of 4-HPR and 4-oxo-4-HPR for anti-DENV activity Vero cells were infected with DENV-2 with a multiplicity of infection (MOI) of 1, in the presence of drug diluent (untreated) or the indicated compounds (10 μM in FIG. 3A, or 10 μM or 5 μM as indicated in FIG. 3B) for 2 h, followed by removal of the virus/drug inoculums, and addition of fresh 2% FCS maintenance medium. At 24 h post infection (p.i.) the culture medium was collected and the viral RNA extracted using QIAamp viral RNA mini kit (Qiagen). Absolute RNA copies present in each sample were determined by Taqman One Step RT-PCR (Applied Biosystems), as an estimate of virus titre by extrapolation from a standard curve generated from in vitro transcribed DENV RNA. Data shown are the mean+standard error of the mean (SEM) for 3 (FIG. 3A) or 2 (FIG. 3B) independent experiments. Statistical analysis (Student's ttest) was performed using GraphPad Prism software.

In series [5] the test system is DENV-4. Put plainly: Plaque assay in Huh-7 cells, DENV-4. The series is classed as cell-based. The following applies: Dengue virus, DENV4, Huh-7, 48 h, read-out: EC50, infectious virus titre DENV 4. How it is done: as §1
The target in a further series is DENV-2 NS5 / IMPαΔIBB (Dengue virus type 2, UniProt P14340). The series can be described thus: AlphaScreen binding of His6-NS5 to IMPαΔIBB. How it is done:
(§4) To investigate the specificity of 4-HPR inhibition of NS5-importin association, the binding of 30 nM His6-NS5 to 10 nM IMPα/β, (IMPα/β heterodimer containing biotinylated IMPβ1), 3 nM IMPαΔIBB (biotinylated IMPa with the IMPβ-binding domain removed), or 3 nM biotinylated IMPβ1, in the presence of increasing concentrations of 4-HPR, was investigated.

Series [6] can be described thus: Cytotoxicity analysis in PBMCs. The series is classed as cell-based. The following applies: human.
Another series concerns Vero cells. The series can be described thus: XTT cell viability assay in Vero cells. The series is classed as cell-based. The following applies: 24 h, up to 25 μM. As to the method:
To determine the effect of 4-HPR on cell viability, and to ensure that the reduced viral titres were not due to compound toxicity, XTT reagent was used to measure mitochondrial activity of drug treated cells. Briefly, Vero cells were incubated with 0, 1, 10 or 25 μM 4-HPR for 24 h. XTT reagent was added directly to cells and incubated for 6 h at 37° C. prior to spectrophotometric analysis. Data shown are the mean+SD of a single experiment performed in triplicate wells.

Another series concerns the target DENV-2 NS5 / IMPβ1 (Dengue virus type 2, UniProt P14340). The series can be described thus: AlphaScreen binding of His6-NS5 to biotinylated IMPβ1. The settings on record: 30 nM His6-NS5, 3 nM biotinylated IMPβ1, increasing concentrations of 4-HPR. How it is done: as §4
Series [7] has as its system DENV-2. The series can be described thus: Delayed addition in DENV-2 infected Huh-7 cells, NS1 RNA by qPCR. The series is classed as cell-based. The following applies: 7.5 μM added 12 h p.i., at 24 h p.i. As to the method:
as §3

The subject of series [8] is DENV-2. Put plainly: Cell-based flavivirus immunodetection assay in BHK-21 cells, DENV-2. The settings on record: Dengue virus, DENV2, BHK-21, 48 h, read-out: EC50, DENV-2 replication. As to the method:
as §2

Series [9] deals with DENV-2. Put plainly: Plaque assay in Huh-7 cells, DENV-2. The series is classed as cell-based. The following applies: Dengue virus, DENV2, Huh-7, 48 h, read-out: EC50, infectious virus titre DENV 2. How it is done:
as §1

A further series has as its system DENV-3. The series can be described thus: Plaque assay in Huh-7 cells, DENV-3. The settings on record: Dengue virus, DENV3, Huh-7, 48 h, read-out: EC50, infectious virus titre DENV 3. The series is classed as cell-based. As to the method:
as §1

Consider `CC1=C(/C=C/C(C)=C/C=C/C(C)=C/C(=O)Nc2ccc(O)cc2)C(C)(C)CCC1` [4-HPR, N-(4-hydroxyphenyl) retinamide], for which the concentration giving a half-maximal response (EC50) – broadly, the concentration at which the effect is half-maximal – was determined as 2.6 µM with DENV-1; 0.84 µM in the series with DENV-4 [1]; 2.1 µM in the series on DENV-4 [5]; 2.24 µM with DENV-2 [8]; 2.1 µM with DENV-2 [9]; 1.4 µM in the series with DENV-3. In addition, the “virus titre lower than untreated and 4-MPR-treated controls” value with DENV-2 [2] was determined as 3 logs. For the same compound, in series [3], the “toxicity profile in cancer treatment” value is “favourable toxicity profiles”. Besides, the “reduction in viral RNA copies at 24 h p.i.” value is on record as roughly 1 log with DENV-2 [4] (5 μM compound for 2 h during infection) and 2 log in the series with DENV-2 [4] (10 μM compound for 2 h during infection). The IC50 (commonly the concentration that gives 50% inhibition) on DENV-2 NS5 / IMPαΔIBB came out at 1.6 µM. The CC50 (usually the concentration that lowers cell viability or growth by half) at 48 h in series [6] is greater than 13 µM. Also, the “effect on cell viability (XTT)” value in the series on Vero cells is listed as “no effect on cell viability”. In addition, the “NS5 binding to IMPβ1 alone” value at DENV-2 NS5 / IMPβ1 is reported as “largely unaffected”. Also, the “reduction in viral RNA levels (NS1 qPCR)” value with DENV-2 [7] was found to be 1 log.
